Measurements taken from patent US8722703B2, “Fused amino pyridines for the treatment of brain tumors” (Curis, Inc., priority 2009, dated 2014).
Like-named read-outs stand apart in the source and are kept apart here.

How the values were obtained:
[1] = PK in mouse brain after i.v. and oral delivery, cassette study in HCT116 tumor-bearing mice; assay type: in vivo
[2] = PK profile of compound 15 after oral 30 mg/kg, single dose study; assay type: in vivo, mice; settings: female, athymic nude (CD-1 nu/nu), mouse, plasma
Experimental: Female athymic nude (CD-1 nu/nu) were obtained from Charles River Laboratories (Wilmington, Mass.). They were housed in ventilated micro-isolator cages in Curis animal facility conditioned at temperature of 23±1° C., humidity of 50-70%, and a 12-hour light/12-hour dark cycle. The animals were fed with irradiated laboratory rodent diet ad libitum and provided with sterilized water. […] The cell pellet was diluted in HBSS (Hank's balanced salt solution) for implantation. […] The concentration for each compound in the solution was kept below 5 mg/ml. The maximum number of compound in one cassette was 6.30% Captisol (Cydex) was used for all formulation. At various time points (3 mice per time point) following compound administration, mice were euthanized with CO2, blood and tissues were collected. Blood was collected into tubes containing sodium heparin. The plasma was separated via centrifugation and stored at −40° C. before analysis. Tissues including tumors were homogenized in 0.8 ml water. An internal standard was added into the tissue homogenates. The homogenates were extracted with 1 ml ethyl acetate for three times. After evaporation, the residual was reconstituted in 0.1 ml acetonitrile for LC/MS/MS assay (Agilent HPLC 1100 Series).

[3] = Mouse brain concentrations after oral 30 mg/Kg in nude mice with U87MG xenografts; assay type: in vivo
[4] = tested on: cancer derived HSP90 complex (H1975 NSCLC cell extracts); assay: Fluorescence polarization geldanamycin competition binding with H1975 cell extract
[5] = tested on: cancer derived HSP90 complex (H1993 NSCLC cell extracts); assay: Fluorescence polarization geldanamycin competition binding with H1993 cell extract
H1993 NSCLC cells = assay: Western blot of H1993 NSCLC cells after short-term treatment; assay type: cell-based; settings: 1 μmol/L for 7 hours
H1975 NSCLC cells = assay: Western blot of H1975 NSCLC cells after short-term treatment; assay type: cell-based; settings: 1 μmol/L for 7 hours
[6] = tested on: HSP90 client proteins in U87MG s.c. tumors; assay: Pharmacodynamic Western blot analysis of U87MG s.c. tumors; assay type: in vivo, nude mice; settings: U87MG s.c. tumors, 40, 80 or 160 mg/kg oral every other day, 21 days
[7] = tested on: HSP90 client proteins in H1975 subcutaneous tumors; assay: Pharmacodynamic study in H1975 subcutaneous tumors, single dose; assay type: in vivo; settings: single dose 160 mg/kg
H1975 subcutaneous tumor = assay: Efficacy study in the H1975 subcutaneous tumor model (80, 120, 160 mg/kg); assay type: in vivo, nude mice; settings: H1975 s.c., 80, 120, or 160 mg/kg orally once every 2 days
Excerpt: Cells (3.5×106) were implanted subcutaneously into nude mice.

[8] = tested on: H1975 orthotopic lung tumor; assay: Efficacy study in the H1975 orthotopic lung tumor (NSCLC) model; assay type: in vivo, nude mice
Experimental: Dose-dependent efficacy study of Compound-15 in H1975 orthotopic lung tumor model (n=11): Mice were treated with Compound-15 (20, 40, 80, and 120 mg/kg) starting 4 day after tumor implantation.

[9] = tested on: H1975 orthotopic lung tumors; assay: Pharmacodynamic study in H1975 orthotopic lung tumors; assay type: in vivo; settings: 160 mg/kg once
Excerpt: Tumors were collected at various time points (n=2-3) and subjected to Western blot analysis.

A549 subcutaneous tumors = assay: Pharmacodynamic study in K-ras-mutated A549 subcutaneous tumors; assay type: in vivo; settings: 160 mg/kg, 6- and 24-h time points
A549 subcutaneous tumor = assay: Efficacy study in A549 subcutaneous tumor model; assay type: in vivo, nude mice; settings: A549 s.c., 160 mg/kg orally once every two days
[10] = tested on: A549 orthotopic lung tumor; assay: Efficacy study in A549 orthotopic lung tumor model; assay type: in vivo, nude mice; settings: Compound-15 120 mg/kg orally once every two days, erlotinib 50 mg/kg orally once a day, 4 wk
MV4-11 AML s.c. tumor = assay: Efficacy study in MV4-11 s.c. tumor model; assay type: in vivo, sever combined immunodeficient mice; settings: 160 mg/kg orally q2d, three weeks, pretreatment volume 146 mm^3
Excerpt: In an efficacy study using MV4-11 s.c. tumor model (n=8), MV4-11 AML tumor cells (20×10^6) were implanted s.c. into sever combined immunodeficient mice.

[11] = tested on: H1975 (NSCLC) s.c. tumors; assay: PD study after single oral dosing in H1975 (NSCLC) s.c. tumors; assay type: in vivo; settings: single oral dosing 80 mg/kg, 8 h
H1975 NSCLC s.c. tumor = assay: Efficacy study in the H1975 s.c. tumor model (160 mg/kg q2d); assay type: in vivo, nude mice; settings: 160 mg/kg orally q2d, 3 wk
Experimental: H1975 NSCLC cells (5×10^6) were implanted s.c. into nude mice. Treatment with Compound-15 (160 mg/kg, orally, q2d) started when tumors reached an average volume of 160 mm^3.

[12] = tested on: MDA-MB-468 breast cancer orthotopic tumor; assay: Efficacy study in the MDA-MB-468 orthotopic tumor model; assay type: in vivo, nude mice; settings: Compound-15 120 mg/kg orally q2d, paclitaxel 12.5 mg/kg i.p. twice weekly
[13] = tested on: Colo205 colorectal cancer s.c. tumor; assay: Efficacy study in the Colo205 s.c. tumor model; assay type: in vivo, nude mice; settings: 120 mg/kg orally q2d
[14] = female, athymic nude (CD-1 nu/nu), mouse, iv, i.v. delivery (Cassette Study), read-out: HSP90 Compounds in Mouse Brain
[15] = female, athymic nude (CD-1 nu/nu), mouse, oral delivery (10 mg/g Cassette Study), read-out: HSP90 Compounds in Mouse Brain
[16] = then compound-free medium 0, 17 or 24 hours

CN(C)c1cc2c(cc1Sc1nc3c(N)nccc3n1CCNCC(C)(C)C)OCO2 [Compound 15, 2-(6-(dimethylamino)benzo[d][1,3]dioxol-5-ylthio)-1-(2-(neopentylamino)ethyl)-1H-imidazo[4,5-c]pyridin-4-amine]
concentration at 0.08333 hr ([1]; female, athymic nude (CD-1 nu/nu), mouse, iv, i.v. delivery (Cassette Study), Time 0.08333 hr, read-out: HSP90 Compounds in Mouse Brain): 3240 ng/g | concentration at 0.5 hr [1, 14]: 1450 ng/g | concentration at 2 hr [1, 14]: 773 ng/g | concentration at 6 hr [1, 14]: 177 ng/g | concentration at 24 hr [1, 14]: 27 ng/g | concentration at 48 hr [1, 14]: 4.8 ng/g | concentration at 0.5 hr [1, 15]: 61.2 ng/g | concentration at 2 hr [1, 15]: 256 ng/g | concentration at 6 hr [1, 15]: 218 ng/g | concentration at 24 hr [1, 15]: 5.9 ng/g | concentration at 48 hr [1, 15]: 0.7 ng/g | AUC i.v. in the brain ([1]; i.v.): 6761.3 ng·h/g | AUC p.o. in the brain ([1]; p.o.): 3293.9 ng·h/g | F (%) in the brain ([1]; p.o. vs i.v.): 24.4% | AUC(0-inf) [2]: 10500 ng·h/mL | Cmax [2]: 1380 ng/mL | Tmax [2]: 2 h | half-life [2]: 3.3 h | AUC(0-t) ([2]; read-out: AUC0-24): 10400 ng·h/mL | concentration at 0 hr ([3]; female, athymic nude (CD-1 nu/nu), mouse, brain, oral (30 mg/Kg) delivery, U87MG xenografts, Time 0 hr, read-out: HSP90 Compounds in Mouse Brain): 0 ng/g | concentration at 0.5 hr ([3]; female, athymic nude (CD-1 nu/nu), mouse, brain, oral (30 mg/Kg) delivery, U87MG xenografts, Time 0.5 hr, read-out: HSP90 Compounds in Mouse Brain): 66.4 ng/g | concentration at 1 hr ([3]; female, athymic nude (CD-1 nu/nu), mouse, brain, oral (30 mg/Kg) delivery, U87MG xenografts, Time 1 hr, read-out: HSP90 Compounds in Mouse Brain): 124 ng/g | concentration at 3 hr ([3]; female, athymic nude (CD-1 nu/nu), mouse, brain, oral (30 mg/Kg) delivery, U87MG xenografts, Time 3 hr, read-out: HSP90 Compounds in Mouse Brain): 257 ng/g | concentration at 6 hr ([3]; female, athymic nude (CD-1 nu/nu), mouse, brain, oral (30 mg/Kg) delivery, U87MG xenografts, Time 6 hr, read-out: HSP90 Compounds in Mouse Brain): 77.8 ng/g | concentration at 24 hr ([3]; female, athymic nude (CD-1 nu/nu), mouse, brain, oral (30 mg/Kg) delivery, U87MG xenografts, Time 24 hr, read-out: HSP90 Compounds in Mouse Brain): 3.2 ng/g | crossing (into brain) ([3]; nude mice with U87MG xenografts, oral 30 mg/Kg): superior results | AUC in mouse brain ([3]; oral (30 mg/Kg) delivery, U87MG xenografts): 1692.2 ng·h/g | IC50 [4]: 61.2 nM | IC50 [5]: 74.2 nM | downstream PI3K/AKT and RAF/ERK signaling (p-AKT/AKT, p-ERK/ERK levels) (H1993 NSCLC cells): suppressed | levels of phosphorylated-MET and total MET (H1993 NSCLC cells): reduced | phosphorylated and total EGFR, MET, AKT, and MAPK (ERK) (H1993 NSCLC cells; [16]): durably inhibited | downstream PI3K/AKT and RAF/ERK signaling (p-AKT/AKT, p-ERK/ERK levels) (H1975 NSCLC cells): suppressed | levels of phosphorylated-MET and total MET (H1975 NSCLC cells): reduced | phosphorylated and total EGFR, MET, AKT, and MAPK (ERK) (H1975 NSCLC cells; [16]): durably inhibited | HSP90 client proteins in tumors (Western blot) [6]: dose-dependent inhibition | HSP70, a marker of HSP90 inhibition [7]: concurrent induction | HSP90 client proteins in tumors [7]: potent inhibition | mutant EGFR [7]: induced degradation | apoptosis (PARP and caspase-3 cleavages) ([7]; 6- and 24-hour time points): robustly induced apoptosis | body weight (H1975 subcutaneous tumor): without significant loss | tumor growth (H1975 subcutaneous tumor): Dose-dependent inhibition | animal survival, dose dependence ([8]; 20, 40, 80, and 120 mg/kg, 5-wk dosing regimen): dose-dependently extended animal survival | animal survival ([8]; Compound-15 120 mg/kg orally once every two days, erlotinib 50 mg/kg orally once a day, 5 wk): significantly prolonged animal survival | HSP70, apoptosis and phosphorylated-AKT in tumors (Western blot) [9]: Sustained induction of HSP70 and apoptosis and inhibition of oncoprotein phosphorylated-AKT | HER2 and key components of the PI3K/AKT and RAF/MEK/ERK signaling pathways (Western blot) (A549 subcutaneous tumors): Potent inhibition | HSP70 (Western blot) (A549 subcutaneous tumors): concurrent induction | T/C (A549 subcutaneous tumor): 9.5% | tumor growth (A549 subcutaneous tumor): Tumor stasis | animal survival [10]: significantly prolonged animal survival | tumor regression (MV4-11 AML s.c. tumor): complete tumor regression | EGFR and signaling molecules in tumors (Western blot) [11]: inhibited | T/C (H1975 NSCLC s.c. tumor): 15.4% | tumor regression [12]: 3.4% | T/C [13]: 14.2%
